Source: patent US6387947B1, “Antimicrobial cosmetic compositions” (E-L Management Corp., priority 1997, dated 2002)
Entries after “also recorded” stand apart in the source; their conditions may differ.

Columns and labels:
Enterics [1] = test: microbial challenge of nonionic oil-in-water emulsion, pool 1; assay type: cell-based; settings: 0.473% in emulsion
Enterics [2] = test: as above; assay type: cell-based; settings: for concentration of microbes: 0.473% in emulsion
Method: (§1) A nonionic oil-in-water emulsion is prepared containing 0.473% 3-furan carboxylic acid. The formulation is divided into five portions, each one getting an inoculation at day 0, and a reinoculation after three weeks, of one of the following microbial cultures: (1)Enterics; (2) Pseudomonas; (3)Staphylococcus; (4)Yeast; and (5)Mold. The concentration of microbes in each individual formulation is calculated on the day of the inoculation, and then again calculated on day 2, and at the end of one, two, three (pre-reinoculation) and four weeks, at a variety of pH values. These are also compared with formulations containing 2-furan carboxylic acid and an identical series of microbes, and an acid pH control emulsion without a furan carboxylic acid added. All numbers, other than those listed as “<10”, are log base 10; thus, for example, “6.6” is equivalent to the presence of […] bacteria. Entries of <10 indicate less than 10 colony forming units, the lowest level of detection.

[3] = system: PLA2 enzyme obtained from snake venom; settings: assay concentrations 0.01, 0.1 and 1 mg/ml
Method: The enzyme reaction is accomplished in a cuvette containing […] of phosphate buffered saline. Fluorometric substrate NBD-C6-HPC is solubilized 1 mM in EtOH, and is diluted in the reaction mixture to yield a 10 μM final concentration. The assay is initiated with the addition of 0.001 units per μl of PLA2 enzyme obtained from snake venom. Enzyme activity is monitored either with or without the presence of potential inhibitors. […] Prior to enzyme addition, samples are measured fluorometrically at excitation 470 and emission 570 to determine background level of fluorescensce. Following enzyme addition, samples are monitored every 15 minutes over a 60 minute period.

Staphylococcus = test: microbial challenge of nonionic oil-in-water emulsion, pool 3; assay type: cell-based; settings: for concentration of microbes: 0.473% in emulsion
Method: The formulation is divided into five portions, each one getting an inoculation at day 0, and a reinoculation after three weeks, of one of the following microbial cultures: (1)Enterics; (2) Pseudomonas; (3)Staphylococcus; (4)Yeast; and (5)Mold. The concentration of microbes in each individual formulation is calculated on the day of the inoculation, and then again calculated on day 2, and at the end of one, two, three (pre-reinoculation) and four weeks, at a variety of pH values. These are also compared with formulations containing 2-furan carboxylic acid and an identical series of microbes, and an acid pH control emulsion without a furan carboxylic acid added. All numbers, other than those listed as “<10”, are log base 10; thus, for example, “6.6” is equivalent to the presence of […] bacteria. Entries of <10 indicate less than 10 colony forming units, the lowest level of detection.

Pseudomonas [4] = test: microbial challenge of nonionic oil-in-water emulsion, pool 2; assay type: cell-based; settings: for concentration of microbes: 0.473% in emulsion
Method: as §1

Pseudomonas [5] = test: as above; assay type: cell-based; settings: 0.473% in emulsion
[6] = system: lymphocyte adhesion to endothelial cells; test: inhibition of lymphocyte adhesion to endothelial cells; assay type: cell-based, human
Method: Endothelial cells are grown to confluence and washed thoroughly with basal media prior to the experiment to remove all fetal calf serum. The test compounds are then added to the endothelial culture well and incubated for 2 hours. IL-1β is added to stimulated expression of adhesion molecules on the endothelial cells before lymphocytes are added. Lymphocytes are isolated from blood collected from adult human subjects and added to the endothelial culture wells. PHA is added to stimulate adhesion molecule expression in the lymphocytes and the cultures incubated overnight. After a brief washing procedure, cells are incubated with Rose Bengal, and the number of adherent cells assessed by measuring the absorbance at 570 nm.

Mold = test: microbial challenge of nonionic oil-in-water emulsion, pool 5; assay type: cell-based; settings: for concentration of microbes: 0.473% in emulsion
Method: as §1

Yeast = test: microbial challenge of nonionic oil-in-water emulsion, pool 4; assay type: cell-based; settings: for concentration of microbes: 0.473% in emulsion
Method: as §1

[7] = antiirritant effect against Balsam of Peru on ventral forearms of volunteers; assay type: in vivo, human; settings: 0.1% in hydroalcohol 1:1, applied twenty minutes before Balsam of Peru; Minolta Chromameter; seven volunteers
Method: Seven volunteers with a history of skin sensitivity to Balsam of Peru are chosen for the study.
The test compounds are applied to the ventral forearms of panelists. The material is allowed to absorb for twenty minutes and then Balsam of Peru, an irritant is applied on the test sites. Skin irritation is measured in terms of increase in skin redness. The degree of redness is measured with a Minolta Chromameter and compared with the controls, the positive control being skin treated with Balsam of Peru alone, and the negative control being a skin site treated with 10% cola solution(a known antiirritant), and challenged like the test products.

Work on `O=C(O)c1ccoc1` [3-furan carboxylic acid] yielded a concentration of microbes (Enterics [1]; pH 3.0, Day 0) of 6.6 log base 10, a concentration of microbes (Enterics [1]; pH 3.0, Day 2) of under 10 colony forming units and a concentration of microbes (Enterics [1]; pH 3.0, Week 4) of under 10 colony forming units. For the same molecule, the concentration of microbes (Enterics [1]; pH 4.0, Day 2) was under 10 colony forming units, the concentration of microbes (Enterics [1]; pH 4.0, Week 3) was under 10 colony forming units and the concentration of microbes (Enterics [1]; pH 4.0, Week 4) was under 10 colony forming units. It also gave a concentration of microbes (Enterics [1]; pH 5.0, Day 0) of 6.6 log base 10, a concentration of microbes (Enterics [1]; pH 5.0, Day 2) of under 10 colony forming units and a concentration of microbes (Enterics [1]; pH 5.0, Week 2) of under 10 colony forming units. For the same molecule, the concentration of microbes (Enterics [1]; pH 5.0, Week 4) was under 10 colony forming units, the “antimicrobial activity against Enterics, in words” value (Enterics [2]) was “capable of preventing growth” and the concentration of microbes (Enterics [2]; pH 3.0, Week 1) was under 10 colony forming units. For the same molecule, the concentration of microbes (Enterics [2]; pH 3.0, Week 2) was under 10 colony forming units, the concentration of microbes (Enterics [2]; pH 3.0, Week 3) was under 10 colony forming units and the concentration of microbes (Enterics [2]; pH 4.0, Day 0) was 6.6 log base 10. It also gave a concentration of microbes (Enterics [2]; pH 4.0, Week 1) of under 10 colony forming units, a concentration of microbes (Enterics [2]; pH 4.0, Week 2) of under 10 colony forming units and a concentration of microbes (Enterics [2]; pH 5.0, Week 1) of under 10 colony forming units. The concentration of microbes (Enterics [2]; pH 5.0, Week 3) was under 10 colony forming units, the “PLA2 inhibition, in words” value [3] was “exceptionally active” and the “antimicrobial activity against Staphylococcus, in words” value (Staphylococcus) was “capable of preventing growth”. The concentration of microbes (Staphylococcus; pH 3.0, Day 0) was 6.3 log base 10, the concentration of microbes (Staphylococcus; pH 3.0, Day 2) was under 10 colony forming units and the concentration of microbes (Staphylococcus; pH 3.0, Week 1) was under 10 colony forming units. It also gave a concentration of microbes (Staphylococcus; pH 3.0, Week 2) of under 10 colony forming units, a concentration of microbes (Staphylococcus; pH 3.0, Week 3) of under 10 colony forming units and a concentration of microbes (Staphylococcus; pH 3.0, Week 4) of under 10 colony forming units. The concentration of microbes (Staphylococcus; pH 4.0, Day 0) was 6.3 log base 10, the concentration of microbes (Staphylococcus; pH 4.0, Day 2) was under 10 colony forming units and the concentration of microbes (Staphylococcus; pH 4.0, Week 1) was under 10 colony forming units. The concentration of microbes (Staphylococcus; pH 4.0, Week 2) was under 10 colony forming units, the concentration of microbes (Staphylococcus; pH 4.0, Week 3) was under 10 colony forming units and the concentration of microbes (Staphylococcus; pH 4.0, Week 4) was under 10 colony forming units. It also gave a concentration of microbes (Staphylococcus; pH 5.0, Day 0) of 6.3 log base 10, a concentration of microbes (Staphylococcus; pH 5.0, Day 2) of under 10 colony forming units and a concentration of microbes (Staphylococcus; pH 5.0, Week 1) of under 10 colony forming units. The concentration of microbes (Staphylococcus; pH 5.0, Week 2) was under 10 colony forming units, the concentration of microbes (Staphylococcus; pH 5.0, Week 3) was under 10 colony forming units and the concentration of microbes (Staphylococcus; pH 5.0, Week 4) was under 10 colony forming units. The “antimicrobial activity against Pseudomonas, in words” value (Pseudomonas [4]) was “capable of preventing growth”, the concentration of microbes (Pseudomonas [4]; pH 3.0, Week 3) was under 10 colony forming units and the concentration of microbes (Pseudomonas [4]; pH 4.0, Week 1) was under 10 colony forming units. It also gave a concentration of microbes (Pseudomonas [4]; pH 4.0, Week 2) of under 10 colony forming units, a concentration of microbes (Pseudomonas [4]; pH 4.0, Week 3) of under 10 colony forming units and a concentration of microbes (Pseudomonas [4]; pH 5.0, Week 1) of under 10 colony forming units. It also gave a concentration of microbes (Pseudomonas [4]; pH 5.0, Week 2) of under 10 colony forming units, a concentration of microbes (Pseudomonas [4]; pH 5.0, Week 4) of under 10 colony forming units and a concentration of microbes (Pseudomonas [5]; pH 3.0, Day 2) of under 10 colony forming units. The concentration of microbes (Pseudomonas [5]; pH 3.0, Week 1) was under 10 colony forming units, the concentration of microbes (Pseudomonas [5]; pH 3.0, Week 2) was under 10 colony forming units and the concentration of microbes (Pseudomonas [5]; pH 3.0, Week 4) was under 10 colony forming units. It also gave a concentration of microbes (Pseudomonas [5]; pH 4.0, Day 2) of under 10 colony forming units, a concentration of microbes (Pseudomonas [5]; pH 4.0, Week 4) of under 10 colony forming units and a concentration of microbes (Pseudomonas [5]; pH 5.0, Day 2) of under 10 colony forming units. The concentration of microbes (Pseudomonas [5]; pH 5.0, Week 3) was under 10 colony forming units, the “inhibition of adhesion of polymorphonuclear leukocytes (PMNs) to activated endothelial cells, in words” value [6] was “ability to inhibit the adhesion” and the “inhibition of lymphocyte adhesion, in words (absorbance at 570 nm, Rose Bengal)” value ([6]; concentrations of 0.5% and 1%, IL-1β and PHA stimulated) was “very potent inhibitors of lymphocyte adhesion”. For the same molecule, the “antimicrobial activity against Mold, in words” value (Mold) was “capable of preventing growth; also recorded: superior to 2-furan carboxylic acid”, the concentration of microbes (Mold; pH 3.0, Day 0) was 5.2 log base 10 and the concentration of microbes (Mold; pH 3.0, Day 2) was under 10 colony forming units. It also gave a concentration of microbes (Mold; pH 3.0, Week 1) of under 10 colony forming units, a concentration of microbes (Mold; pH 3.0, Week 2) of under 10 colony forming units and a concentration of microbes (Mold; pH 3.0, Week 3) of under 10 colony forming units. For the same molecule, the concentration of microbes (Mold; pH 3.0, Week 4) was under 10 colony forming units, the concentration of microbes (Mold; pH 4.0, Day 0) was 5.2 log base 10 and the concentration of microbes (Mold; pH 4.0, Day 2) was under 10 colony forming units. It also gave a concentration of microbes (Mold; pH 4.0, Week 1) of under 10 colony forming units, a concentration of microbes (Mold; pH 4.0, Week 2) of under 10 colony forming units and a concentration of microbes (Mold; pH 4.0, Week 3) of under 10 colony forming units. The concentration of microbes (Mold; pH 4.0, Week 4) was under 10 colony forming units, the concentration of microbes (Mold; pH 5.0, Day 0) was 5.2 log base 10 and the concentration of microbes (Mold; pH 5.0, Day 2) was under 10 colony forming units. For the same molecule, the concentration of microbes (Mold; pH 5.0, Week 1) was under 10 colony forming units, the concentration of microbes (Mold; pH 5.0, Week 2) was under 10 colony forming units and the concentration of microbes (Mold; pH 5.0, Week 3) was under 10 colony forming units. For the same molecule, the concentration of microbes (Mold; pH 5.0, Week 4) was under 10 colony forming units, the “antimicrobial activity against yeast, in words” value (Yeast) was “substantially reducing the growth; also recorded: superior to 2-furan carboxylic acid” and the concentration of microbes (Yeast; pH 3.0, Day 0) was 5.7 log base 10. It also gave a concentration of microbes (Yeast; pH 3.0, Day 2) of under 10 colony forming units, a concentration of microbes (Yeast; pH 3.0, Week 1) of under 10 colony forming units and a concentration of microbes (Yeast; pH 3.0, Week 2) of under 10 colony forming units. The concentration of microbes (Yeast; pH 3.0, Week 3) was under 10 colony forming units, the concentration of microbes (Yeast; pH 3.0, Week 4) was under 10 colony forming units and the concentration of microbes (Yeast; pH 4.0, Day 0) was 5.7 log base 10. For the same molecule, the concentration of microbes (Yeast; pH 4.0, Day 2) was 2.5 log base 10, the concentration of microbes (Yeast; pH 4.0, Week 1) was under 10 colony forming units and the concentration of microbes (Yeast; pH 4.0, Week 2) was under 10 colony forming units. The concentration of microbes (Yeast; pH 4.0, Week 3) was under 10 colony forming units, the concentration of microbes (Yeast; pH 4.0, Week 4) was under 10 colony forming units and the concentration of microbes (Yeast; pH 5.0, Day 0) was 5.7 log base 10. For the same molecule, the concentration of microbes (Yeast; pH 5.0, Day 2) was 2.5 log base 10, the concentration of microbes (Yeast; pH 5.0, Week 1) was 2.7 log base 10 and the concentration of microbes (Yeast; pH 5.0, Week 2) was 1.7 log base 10. The concentration of microbes (Yeast; pH 5.0, Week 3) was 2.0 log base 10, the concentration of microbes (Yeast; pH 5.0, Week 4) was 1.8 log base 10 and the “effectiveness in preventing the onset of irritation (reduction of skin redness)” value [7] was 48%.
